Measured values taken from patent US7659394B2 (Pfizer Inc, priority 2004, dated 2010).

How the values were obtained:
[1] = molecular target: T1, human norepinephrine transporter (Homo sapiens, UniProt P23975); assay: hNET receptor binding ([125I]-RTI-55 radioligand binding); conditions: membranes of HEK-293 cells transfected with human norepinephrine transporter, IC50 converted to Ki by Cheng-Prusoff, read-out: hNET (Ki)
T1 construct: host or cells: HEK-293
In short: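 Membranes from HEK-293 cells transfected with human NET. Nonspecific binding defined with 10 μM desipramine, duplicates. IC50 by nonlinear regression, converted to Ki with Cheng-Prusoff.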

[2] = molecular target: T2, human seritonin transporter (Homo sapiens, UniProt P31645); assay: hSERT receptor binding ([125I]-RTI-55 radioligand binding); conditions: membranes of HEK-293 cells transfected with human seritonin transporter, IC50 converted to Ki by Cheng-Prusoff, read-out: SERT (Ki)
T2 construct: host or cells: HEK-293
T2 sequence (P31645 whole entry): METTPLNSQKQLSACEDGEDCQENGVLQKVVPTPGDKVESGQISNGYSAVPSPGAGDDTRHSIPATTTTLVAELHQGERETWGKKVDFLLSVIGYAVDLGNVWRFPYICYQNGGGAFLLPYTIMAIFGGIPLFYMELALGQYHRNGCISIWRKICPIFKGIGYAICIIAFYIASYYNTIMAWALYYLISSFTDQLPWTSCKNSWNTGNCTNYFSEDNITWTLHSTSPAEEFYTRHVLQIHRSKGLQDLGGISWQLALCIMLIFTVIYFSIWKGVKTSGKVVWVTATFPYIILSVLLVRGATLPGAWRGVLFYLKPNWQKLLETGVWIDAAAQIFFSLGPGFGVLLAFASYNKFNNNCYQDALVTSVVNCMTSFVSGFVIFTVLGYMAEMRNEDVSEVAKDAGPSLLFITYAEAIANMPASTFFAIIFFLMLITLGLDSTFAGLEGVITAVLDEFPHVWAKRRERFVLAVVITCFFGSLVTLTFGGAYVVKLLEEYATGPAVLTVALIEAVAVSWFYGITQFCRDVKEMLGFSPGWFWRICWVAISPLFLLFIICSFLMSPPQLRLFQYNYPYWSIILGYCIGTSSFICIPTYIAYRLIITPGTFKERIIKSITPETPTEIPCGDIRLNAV

T1 sequence (P23975 whole entry): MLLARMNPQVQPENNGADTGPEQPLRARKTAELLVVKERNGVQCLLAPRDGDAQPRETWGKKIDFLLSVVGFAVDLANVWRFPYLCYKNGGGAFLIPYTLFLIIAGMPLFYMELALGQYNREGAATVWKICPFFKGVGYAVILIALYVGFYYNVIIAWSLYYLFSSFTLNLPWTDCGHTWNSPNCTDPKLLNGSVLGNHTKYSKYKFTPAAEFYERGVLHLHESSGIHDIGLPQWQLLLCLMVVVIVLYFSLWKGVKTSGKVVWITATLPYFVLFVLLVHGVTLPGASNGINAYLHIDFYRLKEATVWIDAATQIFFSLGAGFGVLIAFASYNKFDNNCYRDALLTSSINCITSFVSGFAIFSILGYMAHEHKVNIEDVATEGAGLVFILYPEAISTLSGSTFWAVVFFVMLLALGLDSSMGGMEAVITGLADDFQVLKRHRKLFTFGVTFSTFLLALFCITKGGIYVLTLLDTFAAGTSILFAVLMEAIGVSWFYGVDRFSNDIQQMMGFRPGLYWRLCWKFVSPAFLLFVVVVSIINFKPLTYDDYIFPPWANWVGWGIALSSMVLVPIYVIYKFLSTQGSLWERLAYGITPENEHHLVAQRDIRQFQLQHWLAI

CCOc1ncccc1OC(CC(C)C)[C@@H]1CNCCO1 (stereo partly drawn) [Example 149, (2S)-2-{1-[(2-ethoxypyridin-3-yl)oxy]-3-methylbutyl}morpholine]
Ki [1]: 9 nM
Ki [2]: 2310 nM

c1ccc([C@H](Oc2cccnc2C2CC2)[C@@H]2CNCCO2)cc1 [Example 150, (2S)-2-[(S)-[(2-cyclopropylpyridin-3-yl)oxy](phenyl)methyl]morpholine]
Ki [1]: 20 nM
Ki [2]: 2030 nM

CC(Oc1ccccc1Oc1ccc(F)cc1)[C@@H]1CNCCO1 (stereo partly drawn) [Example 151, (2S)-2-{1-[2-(4-fluorophenoxy)phenoxy]ethyl}morpholine]
Ki [1]: 4 nM
Ki [2]: 3290 nM

Fc1ccc(Cl)c(O[C@@H](c2ccccn2)[C@@H]2CNCCO2)c1 [Example 152, (2S)-2-[(S)-(2-chloro-5-fluorophenoxy)(pyridin-2-yl)methyl]morpholine]
Ki [1]: 9 nM
Ki [2]: 1940 nM

c1ccc(-c2ccccc2O[C@@H](c2ccccn2)[C@@H]2CNCCO2)cc1 [Example 153, (2S)-2-[(S)-(biphenyl-2-yloxy)(pyridin-2-yl)methyl]morpholine]
Ki [1]: 14 nM
Ki [2]: 6320 nM

c1ccc([C@H](Oc2ccccc2C2CC2)[C@@H]2CNCCO2)nc1 [Example 154, (2S)-2-[(S)-(2-cyclopropylphenoxy)(pyridin-2-yl)methyl]morpholine]
Ki [1]: 12 nM
Ki [2]: 2520 nM

Brc1ccccc1O[C@@H](c1ccccn1)[C@@H]1CNCCO1 [Example 155, (2S)-2-[(S)-(2-bromophenoxy)(pyridin-2-yl)methyl]morpholine]
Ki [1]: 5 nM
Ki [2]: 768 nM

FCc1ccccc1OC(c1ccccc1)[C@@H]1CNCCO1 (stereo partly drawn) [Example 156, (2S)-2-[[2-(fluoromethyl)phenoxy](phenyl)methyl]morpholine]
Ki [1]: 14 nM
Ki [2]: 801 nM

CCOc1cccc(F)c1OC(c1ccccc1)[C@@H]1CNCCO1 (stereo partly drawn) [Example 157, (2S)-2-[(2-ethoxy-6-fluorophenoxy)(phenyl)methyl]morpholine]
Ki [1]: 4 nM
Ki [2]: 2570 nM

COc1cccc(F)c1O[C@@H](c1ccccn1)[C@@H]1CNCCO1 [Example 158, (2S)-2-[(S)-(2-fluoro-6-methoxyphenoxy)(pyridin-2-yl)methyl]morpholine]
Ki [1]: 6 nM
Ki [2]: ≥ 10000 nM

CCOc1cccc(F)c1O[C@@H](c1ccccn1)[C@@H]1CNCCO1 [Example 159, (2S)-2-[(S)-(2-ethoxy-6-fluorophenoxy)(pyridin-2-yl)methyl]morpholine]
Ki [1]: 7 nM
Ki [2]: 7370 nM

Fc1cccc(F)c1O[C@@H](c1ccccn1)[C@@H]1CNCCO1 [Example 160, (2S)-2-[(S)-(2,6-difluorophenoxy)(pyridin-2-yl)methyl]morpholine]
Ki [1]: 6 nM
Ki [2]: 6500 nM

FCCCOc1ccccc1O[C@@H](c1ccccc1)[C@@H]1CNCCO1 [Example 161, (2S)-2-[(S)-[2-(3-fluoropropoxy)phenoxy](phenyl)methyl]morpholine]
Ki [1]: 5 nM
Ki [2]: 3880 nM

CCOc1ncccc1O[C@@H](CC1CCCCC1)[C@@H]1CNCCO1 [Example 162, (2S)-2-{(1S)-2-cyclohexyl-1-[(2-ethoxypyridin-3-yl)oxy]ethyl}morpholine]
Ki [1]: 5 nM
Ki [2]: 263 nM

Fc1cccc(F)c1OC(c1cccc2c1OCC2)[C@@H]1CNCCO1 (stereo partly drawn) [Example 163, (2S)-2-[(2,6-difluorophenoxy)(2,3-dihydro-1-benzofuran-7-yl)methyl]morpholine]
Ki [1]: 13 nM
Ki [2]: 446 nM

Fc1ccc(C2CC2)c(O[C@@H](c2ccccn2)[C@@H]2CNCCO2)c1 [Example 164, (2S)-2-[(S)-(2-cyclopropyl-5-fluorophenoxy)(pyridin-2-yl)methyl]morpholine]
Ki [1]: 13 nM
Ki [2]: 3070 nM

CC(C)Oc1cccc(F)c1O[C@@H](c1ccccc1)[C@@H]1CNCCO1 [Example 165, (2S)-2-[(S)-(2-fluoro-6-isopropoxyphenoxy)(phenyl)methyl]morpholine]
Ki [1]: 4 nM
Ki [2]: 351 nM

COc1ncccc1O[C@@H](c1ccccc1)[C@@H]1CNCCO1 [Example 166, (2S)-2-[(S)-[(2-methoxypyridin-3-yl)oxy](phenyl)methyl]morpholine]
Ki [1]: 8 nM
Ki [2]: 1350 nM

COc1ccc(F)cc1OC(c1ccccc1)[C@@H]1CNCCO1 (stereo partly drawn) [Example 167, (2S)-2-[(5-fluoro-2-methoxyphenoxy)(phenyl)methyl]morpholine]
Ki [1]: 8 nM
Ki [2]: 2550 nM

COc1c(F)cccc1OC(c1ccccc1)[C@@H]1CNCCO1 (stereo partly drawn) [Example 168, (2S)-2-[(3-fluoro-2-methoxyphenoxy)(phenyl)methyl]morpholine]
Ki [1]: 5 nM
Ki [2]: 791 nM

CCOc1ccc(F)cc1OC(c1ccccc1)[C@@H]1CNCCO1 (stereo partly drawn) [Example 169, (2S)-2-[(2-ethoxy-5-fluorophenoxy)(phenyl)methyl]morpholine]
Ki [1]: 6 nM
Ki [2]: 2980 nM

CCOc1c(F)cccc1OC(c1ccccc1)[C@@H]1CNCCO1 (stereo partly drawn) [Example 170, (2S)-2-[(2-ethoxy-3-fluorophenoxy)(phenyl)methyl]morpholine]
Ki [1]: 11 nM
Ki [2]: 4930 nM

CCCOc1cccc(F)c1O[C@@H](c1ccccc1)[C@@H]1CNCCO1 [Example 171, (2S)-2-[(S)-(2-fluoro-6-propoxyphenoxy)(phenyl)methyl]morpholine]
Ki [1]: 20 nM
Ki [2]: 1040 nM

Cc1coc(C(Oc2c(F)cccc2F)[C@@H]2CNCCO2)n1 (stereo partly drawn) [Example 173, (2S)-2-[(2,6-difluorophenoxy)(4-methyl-1,3-oxazol-2-yl)methyl]morpholine]
Ki [1]: 12 nM
Ki [2]: ≥ 10000 nM

Cc1coc(C(Oc2ccccc2OC(F)(F)F)[C@@H]2CNCCO2)n1 (stereo partly drawn) [Example 174, (2S)-2-{(4-methyl-1,3-oxazol-2-yl)[2-(trifluoromethoxy)phenoxy]methyl}morpholine]
Ki [1]: 18 nM
Ki [2]: 7520 nM

Fc1cccc(F)c1OC(c1nccs1)[C@@H]1CNCCO1 (stereo partly drawn) [Example 175, (2S)-2-[(2,6-difluorophenoxy)(1,3-thiazol-2-yl)methyl]morpholine]
Ki [1]: 15 nM
Ki [2]: 7640 nM

CCCC[C@H](Oc1cccnc1OCC)[C@@H]1CNCCO1 [Example 176, (2S)-2-{(1S)-1-[(2-ethoxypyridin-3-yl)oxy]pentyl}morpholine]
Ki [1]: 5 nM
Ki [2]: 3420 nM

Cc1coc(C(Oc2ccccc2Br)[C@@H]2CNCCO2)n1 (stereo partly drawn) [Example 177, (2S)-2-[(2-bromophenoxy)(4-methyl-1,3-oxazol-2-yl)methyl]morpholine]
Ki [1]: 7 nM
Ki [2]: 1960 nM

Cc1cccc(F)c1O[C@@H](c1ccccc1)[C@@H]1CNCCO1 [Example 178, (2S)-2-[(S)-(2-fluoro-6-methylphenoxy)(phenyl)methyl]morpholine]
Ki [1]: 3 nM
Ki [2]: 61 nM

CC(C)c1ncccc1O[C@@H](c1ccccc1)[C@@H]1CNCCO1 [Example 179, (2S)-2-[(S)-[(2-isopropylpyridin-3-yl)oxy](phenyl)methyl]morpholine]
Ki [1]: 18 nM
Ki [2]: 2550 nM

CCOc1ccccc1OC(c1nccs1)[C@@H]1CNCCO1 (stereo partly drawn) [Example 180, (2S)-2-[(2-ethoxyphenoxy)(1,3-thiazol-2-yl)methyl]morpholine]
Ki [1]: 9 nM
Ki [2]: 8230 nM

CCOc1ccccc1O[C@H](c1ccccn1)[C@H]1CNCCO1 [Example 181, (2R)-2-[(R)-(2-ethoxyphenoxy)(pyridin-2-yl)methyl]morpholine]
Ki [1]: 225 nM
Ki [2]: 4900 nM
